Holding throughout (type): functional
What all share (conditions): read-out: ED50 (the source's name)

One assay concerns SK-MEL-5. Kind of assay: Cytotoxicity against human SK-MEL-5 cells.
In a further assay the test system is COLO 205. Kind of assay: Cytotoxicity against human COLO205 cells.
Another assay concerns KB. The assay can be described thus: Cytotoxicity against human KB cells.

For `COC(=O)[C@@]12OC[C@]34[C@H]([C@@H](O)[C@@H]1O)[C@@]1(C)[C@H](O)C(=O)C[C@@H](C)[C@@H]1C[C@H]3OC(=O)[C@H](OC(=O)/C=C(\C)C(C)(C)OC(C)=O)[C@@H]24` [BRUCEANOL G], the EC50 with SK-MEL-5 is 4.08 µM; in the assay on COLO 205, 440 nM; in the assay with KB, 550 nM.
As for `COC(=O)[C@@]12OC[C@]34[C@H]([C@@H](O)[C@@H]1O)[C@@]1(C)C(=O)[C@@H](O)C[C@@H](C)[C@@H]1C[C@H]3OC(=O)[C@H](OC(=O)/C=C(\C)C(C)C)[C@@H]24` [BRUCEANOL H], the EC50 in the assay with SK-MEL-5 was determined as 6.37 µM.

These data come from ChEMBL document CHEMBL1150100, “Bruceanols G and H cytotoxic quassinoids from Brucea antidysenterica” (1995).
